These results are taken from patent US20080200505A1, “Piperidines for the Treatment of Chemokine Mediated Diseases” (ASTRAZENECA AB, priority 2005, published 2008).

In this test the target is T1, human H1 receptor (Homo sapiens, UniProt P35367).
T1 construct: purchased Euroscreen SA, Brussels, Belgium ES-390-M; host or cells: CHO-K1
T1 sequence (P35367 whole entry): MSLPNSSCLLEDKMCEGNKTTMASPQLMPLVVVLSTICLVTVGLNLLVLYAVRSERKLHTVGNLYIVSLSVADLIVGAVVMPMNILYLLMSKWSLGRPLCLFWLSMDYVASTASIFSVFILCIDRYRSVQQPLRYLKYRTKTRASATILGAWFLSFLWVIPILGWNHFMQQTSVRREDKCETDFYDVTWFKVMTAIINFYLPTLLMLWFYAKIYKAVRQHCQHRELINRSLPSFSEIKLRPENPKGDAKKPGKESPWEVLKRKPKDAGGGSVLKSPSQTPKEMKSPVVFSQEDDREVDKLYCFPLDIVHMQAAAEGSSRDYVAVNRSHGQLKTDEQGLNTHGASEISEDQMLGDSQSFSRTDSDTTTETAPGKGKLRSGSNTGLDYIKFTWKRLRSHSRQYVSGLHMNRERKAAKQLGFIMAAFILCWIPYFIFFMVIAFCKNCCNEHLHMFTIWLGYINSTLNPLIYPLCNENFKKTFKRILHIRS
As to the kind of experiment: Histamine H1 receptor binding, competition displacement of [3H]-pyrilamine. The conditions noted are these: displacement of 1 nM [3H]-pyrilamine; membranes from recombinant CHO-K1 cells expressing the human H1 receptor; 1 hour at room temperature; read-out: H1 pKi (converted). The procedure: Histamine H1 receptor binding activity of compounds of the invention was assessed by competition displacement of 1 nM [3H]-pyrilamine (Amersham, Bucks, Product code TRK 608, specific activity 30 Ci/mmol) to 2 μg membranes prepared from recombinant CHO-K1 cells expressing the human H1 receptor (Euroscreen SA, Brussels, Belgium, product code ES-390-M) in assay buffer (50 mM Tris pH 7.4 containing 2 mM MgCl2, 250 mM sucrose and 100 mM NaCl) for 1 hour at room temperature.
The following compounds of the invention gave inhibition of [3H] pyrilimine binding: […]
As for `O=C(O)[C@H]1C2CCC(C2)[C@H]1N1CCC(CN2CCC(Oc3ccc(Cl)c(Cl)c3)CC2)CC1` (mixture of isomers) [Example 3A, (2S,3R) and (2R,3S)-3-(4-{[4-(3,4-dichlorophenoxy)piperidin-1-yl]methyl}piperidin-1-yl)bicyclo[2.2.1]heptane-2-carboxylic acid], the Ki is 126 nM.
Take `O=C(O)[C@@H]1CCCC[C@H]1N1CCC(CN2CCC(Oc3ccc(Cl)c(Cl)c3)CC2)CC1` (racemic) [Example 1A, (1R,2R) and (1S,2S)-2-(4-{[4-(3,4-dichlorophenoxy)piperidin-1-yl]methyl}piperidin-1-yl)cyclohexanecarboxylic acid]: the Ki was 200 nM.
The result for `O=C(O)C1CCCC1N1CCC(CN2CCC(Oc3ccc(Cl)c(Cl)c3)CC2)CC1` [Example 4A, (1S,2R) and (1R,2S)-2-(4-{[4-(3,4-dichlorophenoxy)piperidin-1-yl]methyl}piperidin-1-yl)cyclopentanecarboxylate] reads 316 nM.
